Assay results from patent publication US6300501A, “Histidine-(N-benzyl glycinamide) inhibitors of protein farnesyl transferase” (Warner-Lambert Company, priority 1998, dated 2001).
Like-named read-outs stand apart in the source and are kept apart here.

How the values were obtained:
[1] = target: T1, SF9 affinity purified rat farnesyl protein transferase (Rattus norvegicus, UniProt Q02293+Q04631); test: PFT inhibitory activity (radiolabeled farnesyl pyrophosphate, streptavidin bead assay); assay type: biochemical
T1 construct: made in house; host or cells: Sf9 insect cells (baculovirus system inferred from b7)
T1 sequence (Q02293 whole entry, one chain of several): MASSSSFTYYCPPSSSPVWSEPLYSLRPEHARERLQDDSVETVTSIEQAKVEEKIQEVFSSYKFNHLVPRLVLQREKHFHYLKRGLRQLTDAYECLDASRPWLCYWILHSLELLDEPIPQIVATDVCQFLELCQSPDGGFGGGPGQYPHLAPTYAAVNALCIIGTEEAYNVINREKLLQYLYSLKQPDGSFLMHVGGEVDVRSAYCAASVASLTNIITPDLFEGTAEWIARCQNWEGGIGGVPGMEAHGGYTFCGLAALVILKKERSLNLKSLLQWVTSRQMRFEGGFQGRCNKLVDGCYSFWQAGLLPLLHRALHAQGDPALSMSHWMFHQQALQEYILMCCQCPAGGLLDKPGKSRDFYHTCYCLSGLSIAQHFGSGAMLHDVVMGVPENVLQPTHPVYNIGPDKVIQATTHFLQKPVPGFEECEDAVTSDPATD
Procedure: The protein:farnesyl transferase (PFT) or farnesyl protein transferase (FPT) inhibitory activity of compounds of the present invention were assayed in HEPES buffer (pH 7.4) containing 5 mM potassium phosphate and 20 μM ZnCl2. The solution also contained 5 mM DTT (dithiothreitol), 5 mM MgCl2, and 0.1% PEG 8000. Assays were performed in 96 well plates (Wallec) and employed solutions composed of varying concentrations of a compound of the present invention in 100% DMSO (dimethylsulfoxide). Upon addition of both substrates, radiolabeled farnesyl pyrophosphate ([1^3 H], specific activity 15-30 Ci/mmol, final concentration 134 nM) and (biotinyl)-Ahe-Thr-Lys-Cys-Val-Ile-Met ([3aS[3a alpha, 4 beta, 6a alpha]-hexahydro-2-oxo-1H-thieno[3,4-d]imidazole-5-pentanoic acid]-[7-aminoheptanoic acid]-Thr-Lys-Cys-Val-Ile-Met) (Ahe is 7-aminoheptanoic acid, Thr is threonine, Lys is lysine, Cys is cysteine, Val is valine, Ile is isoleucine and Met is methionine) (final concentration 0.2 μM), the enzyme reaction was started by addition of SF9 affinity purified rat farnesyl protein transferase. After incubation at 30° C. for 30 minutes, the reaction was terminated by diluting the reaction 2.5-fold with a stop buffer containing 1.5 M magnesium acetate, 0.2 M H3 PO4, 0.5% BSA (bovine serum albumin), and strepavidin beads (Amersham) at a concentration of 1.3 mg/mL. After allowing the plate to settle for 30 minutes at room temperature, radioactivity was quantitated on a microBeta counter (Model 1450, Wallec). The assay was also carried out without 5 mM potassium phosphate.

[2] = system: H61 cells: NIH transformed 3T3 H-ras cells; test: Clonogenic assay (6 well plates, soft agar); assay type: cell-based
Procedure: Clonoaenic Assay (6 well lates)
Sometime previous to setting up an actual test:
1. Make up 1.5% Bacto Agar in Milli-Q water and autoclave.
2. Make up 500 mL 2× DMEM-HG without phenol red by combining the following:
1 bottle DMEM base powder (Sigma D-5030)
Adjust pH to 7.1 with HCL; filter sterilize.
1. Set up makeshift water bath (beaker of water with thermometer, on hot plate) in the hood. Keep water temperature between 37° C. to 43° C.
2. […] 1.5% Bacto Agar for approximately 2 minutes on high, or until completely melted. Then let it cool somewhat before using it. (You can keep it from resolidifying by setting the bottle on the hot plate.) […]
3. Bottom Layer (0.6% agar) Top Layer (0.3% agar)
20% calf serum 20% calf serum
40% Bacto Agar (1.5%) 20% Bacto Agar (1.5%)
Depending on the volume of each layer needed, use either 50 mL conical tubes or 200 mL turnip tubes which can be floated in the "water bath".
4. Add 1 mL of bottom layer agar/medium to each well: deliver 1 mL warm agar/medium to a well; then using the tip of the pipet, spread the agar/medium around to completely cover the bottom. Repeat with next well.
5. Allow the plates to set at room temperature for about 5 minutes until the bottom layer solidifies.
6. Label sterile Falcon 2054 (12×75 mm) tubes and add appropriate volume of drug solutions into them.
7. Aliquot 4 AL of DMSO or drug solution per 1 mL of agar/medium to appropriate tubes; then add the agar/medium/cells to each tube. Always add 1 mL more than will actually be needed. Mix up and down in the pipet (gently); then deliver 1 mL to the center of each well. The upper layer is less viscous, so it will generally spread out over the bottom layer unaided. If necessary, rotate the plane of the plate gently to spread the top layer evenly over the bottom layer.
8. Let plates set for 5 or 10 minutes at room temperature to solidify, then put into 5% CO2, 37° C. incubator.
9. On Day 13, add 0.5 mL of INT (tetrazolium 1 mg/mL in Milli-Q H2 O, filter sterilized) and return plates to incubator.

[3] = system: ras farnesylation in ras-transformed cells; test: Gel shift assay; assay type: cell-based; details: ras-transformed cells, 18-hour incubation; read-out: Gel Shift (μM) MED (minimal effective dose to observe inhibition of ras farnesylation)
Procedure: Twenty-four hours after planting 2×10^6 ras-transformed cells per treatment condition, the farnesylation inhibitor is added at varying concentrations. Following an 18-hour incubation period, cells are lysed in phosphate-buffered saline containing 1% Triton X-100, 0.5% sodium deoxycholate, and 0.1% SDS (sodium dodecyl sulfate), pH 7.4 in the presence of several protease inhibitors (PMSF (phenylmethylsulfonylfluoride), antipain, leupeptin, pepstatin A, and aprotinin all at 1 μg/mL). Ras protein is immunoprecipitated from the supernatants by the addition of 3 μg v-H-ras Ab-2 (Y13-259 antibody from Oncogene Science). After overnight immunoprecipitation, 30 μL of a 50% protein G-Sepharose slurry (Pharmacia) is added followed by 45-minute incubation. Pellets are resuspended in 2× tris-glycine loading buffer (Novex) containing 5% β-mercaptoethanol and then denatured by 5 minutes boiling prior to electrophoresis on 14% Tris-glycine SDS gels. Using Western transfer techniques, proteins are transferred to nitrocellulose membranes followed by blocking in blocking buffer. Upon overnight incubation with primary antibody (pan-ras Ab-2 from Oncogene Science), an antimouse HRP (horse radish peroxidase) conjugate secondary antibody (Amersham) is employed for detection of the ras protein. Blots are developed using ECL(enhanced chemiluminescence) techniques (Amersham).

[4] = HEPES buffer pH 7.4, without 5 mM potassium phosphate, read-out: IC50 (μM) Hepes
[5] = HEPES buffer pH 7.4 containing 5 mM potassium phosphate, read-out: IC50 (μM) 5 mM K3 PO4 -2
[6] = 312 h, colonies counted after Day 13, read-out: Clonogenic Assay IC50
[7] = colonies counted after Day 13, read-out: Clonogenic Assay IC50

Structure (SMILES)	IC50 [1, 4] [µM]	IC50 [1, 5] [µM]	IC50 [2, 6] [µM]	minimal effective concentration [3] [µM]	IC50 ([2]; average obtained by additional tests, read-out: Clonogenic Assay IC50 (μM), number in parentheses) [µM]	IC50 [2, 7] [µM]	IC50 ([1]; with 5 mM potassium phosphate, average obtained by additional tests, read-out: IC50 (μM) 5 mM K3 PO4 -2, number in parentheses) [µM]	IC50 ([1]; without 5 mM potassium phosphate, average obtained by additional tests, read-out: IC50 (μM) Hepes, number in parentheses) [µM]
CC(C)(CNC(=O)CN(Cc1ccccc1)C(=O)[C@H](Cc1c[nH]cn1)NC(=O)OCc1ccccc1)c1ccccc1 [Example 42, (S)-[1-{Benzyl-[(2-methyl-2-phenyl-propylcarbamoyl)-methyl]-carbamoyl}-2-(1H-imidazole-4-yl)-ethyl]-carbamic Acid Benzyl Ester]	0.6	0.005	0.51	0.05				
O=C(CN(Cc1ccc(OCc2ccccc2)cc1)C(=O)[C@H](Cc1c[nH]cn1)NC(=O)OCc1ccccc1)NCCOCc1ccccc1 [Example 1, (S)-N-[(Phenylmethoxy)carbonyl]-L-histidyl-N-[2-(phenylmethoxy)ethyl]-N. sup.2-[[4-(phenylmethoxy)phenyl]-methyl]alycinamide]	7.7	0.26		1	14.3	2.7		
CC(CNC(=O)CN(Cc1ccc(OCc2ccccc2)cc1)C(=O)[C@H](Cc1cnc[nH]1)NC(=O)OCc1ccccc1)c1ccccc1N (stereo partly drawn) [Example 21]	0.16	0.008		0.05		0.3		
O=C(CN(Cc1ccc(Cl)cc1)C(=O)[C@H](Cc1c[nH]cn1)NC(=O)OCc1ccccc1)NCCOCc1ccccc1 [Example 3]	3.1	0.97		0.25		> 1	0.61	2.8
CN(Cc1ccccc1)C(=O)N[C@@H](Cc1c[nH]cn1)C(=O)N(CC(=O)NCC(C)(C)c1ccccc1)Cc1ccc(OCc2ccccc2)cc1 [Example 41, (S)-2-(3-Benzyl-3-methyl-ureido)-N-(4-benzyloxy-benzyl)-3-(1H-imidazole-4-yl)-N-[(2-methyl-2-phenyl-propylcarbamoyl)-methyl]-propionamide]	0.009	0.004	0.04	0.05				
O=C(CN(Cc1ccc(OCc2ccccc2)cc1)C(=O)[C@H](Cc1c[nH]cn1)NC(=O)OCc1ccccc1)NCC(c1ccccc1)c1ccccc1Cl (stereo partly drawn) [Example 24, (S)-[1-((4-Benzyloxy-benzyl)-{[2-(2-chloro-phenyl)-2-phenyl-ethylcarbamoyl]-methyl}-carbamoyl)-2-(1H-imidazole-4-yl)-ethyl]-carbamic Acid Benzyl Ester]	0.2	0.014	0.82	0.2				

Now from value to molecule, other results behind:

IC50 [1, 4] [µM]	IC50 [1, 5] [µM]	Structure (SMILES)	IC50 [2, 6] [µM]	minimal effective concentration [3] [µM]	IC50 ([2]; average obtained by additional tests, read-out: Clonogenic Assay IC50 (μM), number in parentheses) [µM]	IC50 [2, 7] [µM]	IC50 ([1]; with 5 mM potassium phosphate, average obtained by additional tests, read-out: IC50 (μM) 5 mM K3 PO4 -2, number in parentheses) [µM]	IC50 ([1]; without 5 mM potassium phosphate, average obtained by additional tests, read-out: IC50 (μM) Hepes, number in parentheses) [µM]
0.45	0.007	CC(CNC(=O)CN(Cc1ccc(OCc2cccnc2)cc1)C(=O)[C@H](Cc1c[nH]cn1)NC(=O)OCc1ccccc1)c1ccccc1 (stereo partly drawn) [Example 36, (S)-(2-(1H-Imidazole-4-yl)-1-{[(2-phenyl-propylcarbamoyl)-methyl]-[4-(pyridin-3-ylmethoxy)-benzyl]-carbamoyl}-ethyl)-carbamic Acid Benzyl Ester]	0.32	≥ 0.05				
0.88	0.004	CC(CNC(=O)CN(Cc1ccc(-c2ccccc2)cc1)C(=O)[C@H](Cc1c[nH]cn1)NC(=O)OCc1ccccc1)c1ccccc1 (stereo partly drawn) [Example 51, (S)-[1-{Biphenyl-4-ylmethyl-[(2-phenyl-propylcarbamoyl)-methyl]-carbamoyl}-2-(1H-imidazole-4-yl)-ethyl]-carbamic Acid Benzyl Ester]	0.25	≥ 0.05				
1.4	0.022	CC(CNC(=O)CN(Cc1ccc(Cl)cc1)C(=O)[C@H](Cc1c[nH]cn1)NC(=O)OCc1ccccc1)c1ccccc1 (stereo partly drawn) [Example 13, (S)-[1-{(4-Chloro-benzyl)-[(2-phenyl-propylcarbamoyl)-methyl]-carbamoyl}-2-(1H-imidazole-4-yl)-ethyl]-carbamic Acid Benzyl Ester]	> 1	0.2				
